From PubChem BioAssay (NCI)
Several values for one entry are separate records, joined by “and”; a condition that tells them apart may be missing. Equal entries are not always repeated.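 Step 1: Grow cells in 96-well plates. Step 2: Expose to compound for 48 hours at 5 concentrations. Step 3: Interpolate endpoints linearly; if unreached, use highest concentration. Abbreviation: GI50, concentration required for 50% inhibition of growth. TGI: total growth inhibition.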

What was measured:
Test in all cases: NCI tumour cell line growth inhibition, 48 h
A498 renal = tested on: A498 renal
A549 NSCLC = tested on: A549 NSCLC
CAKI-1 renal = tested on: CAKI-1 renal
CCRF-CEM leukemia = tested on: CCRF-CEM leukemia
COLO 205 colon = tested on: COLO 205 colon
DLD-1 colon = tested on: DLD-1 colon
DMS 273 small cell lung = tested on: DMS 273 small cell lung
EKVX NSCLC = tested on: EKVX NSCLC
HCC-2998 colon = tested on: HCC-2998 colon
HCT-116 colon = tested on: HCT-116 colon
HCT-15 colon = tested on: HCT-15 colon
HL-60(TB) leukemia = tested on: HL-60(TB) leukemia
HOP-18 NSCLC = tested on: HOP-18 NSCLC
HOP-62 NSCLC = tested on: HOP-62 NSCLC
HOP-92 NSCLC = tested on: HOP-92 NSCLC
HT29 colon = tested on: HT29 colon
IGROV1 ovarian = tested on: IGROV1 ovarian
K-562 leukemia = tested on: K-562 leukemia
KM12 colon = tested on: KM12 colon
M19-MEL melanoma = tested on: M19-MEL melanoma
MALME-3M melanoma = tested on: MALME-3M melanoma
MCF7 breast = tested on: MCF7 breast
MOLT-4 leukemia = tested on: MOLT-4 leukemia
NCI-H226 lung = tested on: NCI-H226 lung
NCI-H23 lung = tested on: NCI-H23 lung
NCI-H460 lung = tested on: NCI-H460 lung
NCI-H522 lung = tested on: NCI-H522 lung
NCI/ADR-RES ovarian = tested on: NCI/ADR-RES ovarian
OVCAR-3 ovarian = tested on: OVCAR-3 ovarian
OVCAR-4 ovarian = tested on: OVCAR-4 ovarian
OVCAR-5 ovarian = tested on: OVCAR-5 ovarian
OVCAR-8 ovarian = tested on: OVCAR-8 ovarian
P388 leukemia = tested on: P388 leukemia
P388/ADR leukemia = tested on: P388/ADR leukemia
RPMI-8226 leukemia = tested on: RPMI-8226 leukemia
RXF 393 renal = tested on: RXF 393 renal
SF-268 CNS = tested on: SF-268 CNS
SF-295 CNS = tested on: SF-295 CNS
SF-539 CNS = tested on: SF-539 CNS
SK-MEL-2 melanoma = tested on: SK-MEL-2 melanoma
SK-MEL-28 melanoma = tested on: SK-MEL-28 melanoma
SK-MEL-5 melanoma = tested on: SK-MEL-5 melanoma
SK-OV-3 ovarian = tested on: SK-OV-3 ovarian
SN12C renal = tested on: SN12C renal
SN12K1 renal = tested on: SN12K1 renal
SNB-19 CNS = tested on: SNB-19 CNS
SNB-75 CNS = tested on: SNB-75 CNS
SNB-78 CNS = tested on: SNB-78 CNS
SW-620 colon = tested on: SW-620 colon
U251 CNS = tested on: U251 CNS
UACC-257 melanoma = tested on: UACC-257 melanoma
UACC-62 melanoma = tested on: UACC-62 melanoma
UO-31 renal = tested on: UO-31 renal
XF 498 CNS = tested on: XF 498 CNS

C=C1C(=O)O[C@H]2[C@H]1[C@@H](OC(=O)C=C(C)C)CC1=C[C@@H](C[C@@]3(C)O[C@@H]23)OC1=O
GI50 (A498 renal): 21.3 µM
TGI (A498 renal): 26.5 µM and 39.2 µM
TGI (A549 NSCLC): 63 µM and 39.7 µM
TGI (CAKI-1 renal): 9.11 µM
TGI (CCRF-CEM leukemia): 1120 µM
GI50 (COLO 205 colon): 0.993 µM and 2.27 µM
TGI (COLO 205 colon): 2.49 µM and 4.17 µM
TGI (DLD-1 colon): 11.8 µM
GI50 (DMS 273 small cell lung): 24.7 µM
GI50 (EKVX NSCLC): 0.839 µM
TGI (EKVX NSCLC): 10.2 µM and 5.83 µM
TGI (HCC-2998 colon): 34.9 µM
TGI (HCT-116 colon): 16.5 µM
GI50 (HCT-15 colon): 3.46 µM
TGI (HCT-15 colon): 3.97 µM and 11.7 µM
GI50 (HL-60(TB) leukemia): 0.292 µM and 2.24 µM
TGI (HL-60(TB) leukemia): 0.977 µM and 4.9 µM
TGI (HOP-18 NSCLC): 10.2 µM
GI50 (HOP-62 NSCLC): 60.9 µM
TGI (HOP-62 NSCLC): 52.2 µM and 187 µM
TGI (HOP-92 NSCLC): 4.15 µM
TGI (HT29 colon): 12.5 µM
GI50 (IGROV1 ovarian): 14.2 µM
TGI (IGROV1 ovarian): 27 µM and 34.4 µM
GI50 (K-562 leukemia): 1.02 µM and 3.16 µM
TGI (K-562 leukemia): 50.2 µM and 9.4 µM
GI50 (KM12 colon): 10.4 µM
TGI (KM12 colon): 15.7 µM and 29.7 µM
GI50 (M19-MEL melanoma): 4.37 µM
TGI (M19-MEL melanoma): 8.29 µM and 16.7 µM
GI50 (MALME-3M melanoma): 3.22 µM
TGI (MALME-3M melanoma): 22.6 µM and 8.1 µM
GI50 (MCF7 breast): 0.603 µM and 2.59 µM
TGI (MCF7 breast): 4.39 µM and 6.93 µM
TGI (MOLT-4 leukemia): 77.4 µM
TGI (NCI-H226 lung): 36.2 µM
TGI (NCI-H23 lung): 13.5 µM
GI50 (NCI-H460 lung): 2.27 µM and 14.9 µM
TGI (NCI-H460 lung): 5.83 µM and 31.8 µM
TGI (NCI-H522 lung): 3.08 µM
GI50 (NCI/ADR-RES ovarian): 3.89 µM
TGI (NCI/ADR-RES ovarian): 6.18 µM and 13.4 µM
GI50 (OVCAR-3 ovarian): 4.92 µM
TGI (OVCAR-3 ovarian): 4.77 µM and 15.6 µM
GI50 (OVCAR-4 ovarian): 4.55 µM
TGI (OVCAR-4 ovarian): 20.6 µM and 13.7 µM
GI50 (OVCAR-5 ovarian): 30 µM
TGI (OVCAR-5 ovarian): 32.1 µM and 49 µM
GI50 (OVCAR-8 ovarian): 1.99 µM
TGI (OVCAR-8 ovarian): 7.5 µM
TGI (P388 leukemia): 0.914 µM
TGI (P388/ADR leukemia): 1120 µM and 1250 µM
GI50 (RPMI-8226 leukemia): 0.81 µM and 2.61 µM
TGI (RPMI-8226 leukemia): 67.2 µM and 7.16 µM
TGI (RXF 393 renal): 3.82 µM
GI50 (SF-268 CNS): 17.5 µM and 5.11 µM
TGI (SF-268 CNS): 35.6 µM and 22.9 µM
TGI (SF-295 CNS): 28.4 µM
TGI (SF-539 CNS): 5.29 µM
GI50 (SK-MEL-2 melanoma): 13 µM
TGI (SK-MEL-2 melanoma): 17.6 µM and 30 µM
GI50 (SK-MEL-28 melanoma): 8.31 µM and 3.23 µM
TGI (SK-MEL-28 melanoma): 46 µM and 8.18 µM
TGI (SK-MEL-5 melanoma): 15 µM
GI50 (SK-OV-3 ovarian): 25 µM
TGI (SK-OV-3 ovarian): 36.9 µM and 43.9 µM
TGI (SN12C renal): 12.7 µM
GI50 (SN12K1 renal): 17.6 µM
TGI (SN12K1 renal): 21.3 µM and 35.5 µM
TGI (SNB-19 CNS): 55.3 µM
TGI (SNB-75 CNS): 33.3 µM
GI50 (SNB-78 CNS): 2.35 µM and 10.6 µM
TGI (SNB-78 CNS): 15.1 µM and 40.2 µM
TGI (SW-620 colon): 2.77 µM
GI50 (U251 CNS): 24 µM
TGI (U251 CNS): 32.2 µM and 42.5 µM
TGI (UACC-257 melanoma): 6.88 µM
GI50 (UACC-62 melanoma): 11.3 µM
TGI (UACC-62 melanoma): 12.8 µM and 31.6 µM
TGI (UO-31 renal): 20.9 µM
GI50 (XF 498 CNS): 2.4 µM
TGI (XF 498 CNS): 3.79 µM and 4.51 µM
